Laboratory results from paper PMC13021292, “Safety, tolerability and pharmacokinetics of DNDI‐6148, a novel agent for leishmaniasis: A randomized, controlled, single ascending dose study in healthy participants” (British Journal of Clinical Pharmacology, 2025).

Tests used:
[1] = Urinary excretion and renal clearance, single ascending oral dose study; assay type: in vivo, human; conditions: single oral 10–380 mg
Experimental: Urine was collected up to 72 h during the following intervals: pre‐dose, D1T0h – D1T12h, D1T12h – D2T24h, D2T24h – D3T48h and D3T48h – D4T72h. Urine was collected in containers containing 20 g citric acid monohydrate and stored at 4 °C for a maximum of 43 h. All urine passed during each interval period was combined and at the end of the interval, the pool of acidified urine was vigorously mixed; two aliquots were prepared, each with 1 mL of acidified urine and 1 mL of aqueous solution of 50 g/L bovine serum albumin (BSA) and 9 g/L NaCl.
Tubes of acidified urine/BSA samples were capped immediately for each time point and stored at −80 °C. Samples of both acidified plasma and acidified urine/BSA were shipped for bioanalysis on dry ice by a specialized carrier. Temperatures were monitored using a data logger during transport.

L. donovani = conditions: 25 mg/kg BID for five days, oral; cited from earlier work
L. infantum = conditions: 25 mg/kg BID for five days, oral; cited from earlier work
[2] = Safety and tolerability (adverse events), single ascending oral dose study; assay type: in vivo, human
Experimental: The primary endpoint was assessment of the safety and tolerability of DNDI‐6148 by evaluation of the following parameters: adverse events (AEs), physical examination (including body weight), clinical neurological examination, vital signs, 12‐lead ECG, clinical laboratory (including serum chemistry, haematology, hormonology and urinalysis) and psychological and cognitive examinations.
Safety was assessed by monitoring AEs throughout the study. Other safety monitoring included 12‐lead ECG recordings, measurement of vital signs, physical and neurological examinations, haematology, blood biochemistry and urinalysis and, for the last four participants of the 160 mg cohort and onwards, CRP and TNFα.
To minimize risk, participants were dosed sequentially, using sentinels in each cohort (one receiving DNDI‐6148, one placebo), as per European Medicines Agency guidelines.[12] Stopping criteria used in that study are described in Supplementary Information, Text S2. If the previous dose was well tolerated, with no safety concerns, the Safety Review Committee decided on dose escalation after reviewing blinded safety and PK data from all available cohorts.

[3] = at 1 μM; cited from earlier work
[4] = Plasma pharmacokinetics, first-in-human single ascending oral dose study
Experimental: This was a FIH, phase I, double‐blind, parallel, single ascending dose (SAD) study of DNDI‐6148 arginine monohydrate, administered as an oral suspension to healthy male participants. Cohorts 1–8 each included eight participants and were administered 10, 20, 40, 80, 160, 220, 300 or 380 mg (free form) of DNDI‐6148 (in six participants) or placebo (two participants).
At the clinical site, a suspension was prepared extemporaneously by the pharmacist within 24 h prior to administration to participants (the timepoint for which stability data of the suspension were available). The IP powder was suspended in 30 mL ORA‐Sweet® (Paddock Laboratories, LLC, Minneapolis, USA) for taste and colour masking. Participants were administered between 4 and 25 mL of the suspensions, followed by the ingestion of 250 mL tap water. Opaque precision syringes were used to administer the solutions to minimize the risk of unblinding. To preclude any dietary effects on the PK of DNDI‐6148, participants fasted for 9 h before they received the IP or placebo. Treatments were administered under the supervision of the investigator at approximately 8 a.m. on Day 1.
Blood samples (6 mL per time point) for pharmacokinetic analyses were collected on Day 1 pre‐dose and at the following post‐dose time points: 0.5,1, 1.5 (cohorts 1–4 only), 2, 2.5, 3, 4, 5 (cohorts 5–8 only), 6, 9, 12, 24, 48 and 72 h. […] Within 30 min of blood collection, blood samples were centrifuged at 1500g for 10 min at 4 °C and 500 μL of plasma were transferred into pre‐labelled polypropylene tubes prefilled with phosphoric acid 2% (1:1, v:v). Tubes were capped immediately for each time point, and the plasma was frozen in an upright position at −80 °C for storage.
Concentrations of DNDI‐6148 were determined in acidified plasma and acidified urine/BSA mixture using a validated internally standardized liquid chromatography–tandem mass spectrometry (LC–MS/MS) assay with deuterated d4‐DNDI‐6148 as an internal standard. The lower limit of quantitation (LOQ) for DNDI‐6148 was 1 ng/mL in plasma and 10 ng/mL in urine.
Values that were below the LOQ before the first concentration equal or above LOQ were set to zero. Other values below the LOQ were not used to calculate the PK parameters. The area under the plasma concentration‐time curve from time zero (pre‐dose) to the time of last quantifiable concentration (AUC0‐last) was calculated using the linear‐log trapezoidal rule. Elimination half‐life (t1/2) was calculated by the equation ln2/λz, after visual inspection of the plasma concentration‐time profiles (considering a minimum of 3 data points, including the last measurable data point and excluding Cmax).
PK parameters were derived from plasma concentration vs. time data using non‐compartmental analysis in Phoenix WinNonlin® 8.1 (Certara Inc., Princeton, NJ, USA). Plasma concentration vs. time data and PK parameters were listed and summarized by dose level, using descriptive statistics. Mean concentrations were calculated only if at least ⅔ of the individual concentrations were above the lower LOQ (LLOQ). […] Planned sampling times were used to summarize plasma concentration data; actual sampling times were used in the derivation of PK parameters.

In the case of `Cc1c(C(=O)Nc2ccc3c(c2)B(O)OC3)nnn1-c1ccccn1` [DNDI‐6148], the “fraction of the dose excreted by the kidneys as unchanged drug” value [1] is given as “below 0.2%”, the “efficacy in L. donovani mouse model of VL” value (L. donovani) is given as “demonstrated efficacy” and the “efficacy in L. infantum mouse model of VL” value (L. infantum) is given as “demonstrated efficacy”. The “TEAE Musculoskeletal and connective tissue disorders, participants n (%) [events]” value ([2]; 10 mg (N = 6)) was 0, the “TEAE Musculoskeletal and connective tissue disorders, participants n (%) [events]” value ([2]; 80 mg (N = 6)) was 0 and the “TEAE Musculoskeletal and connective tissue disorders, participants n (%) [events]” value ([2]; 160 mg (N = 6)) was 0. The “TEAE Musculoskeletal and connective tissue disorders, participants n (%) [events]” value ([2]; 220 mg (N = 6)) was 0, the “TEAE Musculoskeletal and connective tissue disorders, participants n (%) [events]” value ([2]; 380 mg (N = 6)) was 0 and the “TEAEs (events)” value ([2]; in vivo) was 10. The “participants with TEAEs” value ([2]; in vivo) was 8, the “participants with TEAEs, percentage” value ([2]; in vivo) was 14.3% and the maximal tolerated dose ([2]; single doses 10–380 mg) was “not reached”. For the same compound, the CLint in hepatocytes [3] was 0.5 μL/min/10^6 cells, the CL/F ([4]; 10 mg single oral dose, GM) was 2.89 L/h and the Cmax ([4]; 10 mg single oral dose, GM) was 155 ng/mL. It also gave a Vd/F ([4]; 10 mg single oral dose, GM) of 52.89 L, a t1/2 ([4]; 10 mg single oral dose, GM) of 12.7 h and a CL/F ([4]; 10 mg single oral dose, Mean) of 2.97 L/h. It also gave a Cmax ([4]; 10 mg single oral dose, Mean) of 156 ng/mL, a Vd/F ([4]; 10 mg single oral dose, Mean) of 53.52 L and a t1/2 ([4]; 10 mg single oral dose, Mean) of 12.93 h. The tmax ([4]; 10 mg single oral dose, Mean) was 4 h, the CL/F ([4]; 20 mg single oral dose, GM) was 2.76 L/h and the Cmax ([4]; 20 mg single oral dose, GM) was 292 ng/mL. For the same compound, the Vd/F ([4]; 20 mg single oral dose, GM) was 57.51 L, the t1/2 ([4]; 20 mg single oral dose, GM) was 14.42 h and the CL/F ([4]; 20 mg single oral dose, Mean) was 2.84 L/h. It also gave a Cmax ([4]; 20 mg single oral dose, Mean) of 296 ng/mL, a Vd/F ([4]; 20 mg single oral dose, Mean) of 57.82 L and a t1/2 ([4]; 20 mg single oral dose, Mean) of 14.73 h. The tmax ([4]; 20 mg single oral dose, Mean) was 4 h, the CL/F ([4]; 40 mg single oral dose, GM) was 2.17 L/h and the Cmax ([4]; 40 mg single oral dose, GM) was 585 ng/mL. It also gave a Vd/F ([4]; 40 mg single oral dose, GM) of 61.18 L, a t1/2 ([4]; 40 mg single oral dose, GM) of 19.52 h and a CL/F ([4]; 40 mg single oral dose, Mean) of 2.36 L/h. For the same compound, the Cmax ([4]; 40 mg single oral dose, Mean) was 598 ng/mL, the Vd/F ([4]; 40 mg single oral dose, Mean) was 64.01 L and the t1/2 ([4]; 40 mg single oral dose, Mean) was 19.91 h. For the same compound, the tmax ([4]; 40 mg single oral dose, Mean) was 5 h, the CL/F ([4]; 80 mg single oral dose, GM) was 2.17 L/h and the Cmax ([4]; 80 mg single oral dose, GM) was 1011 ng/mL. For the same compound, the Vd/F ([4]; 80 mg single oral dose, GM) was 69.86 L, the t1/2 ([4]; 80 mg single oral dose, GM) was 22.31 h and the CL/F ([4]; 80 mg single oral dose, Mean) was 2.51 L/h. For the same compound, the Cmax ([4]; 80 mg single oral dose, Mean) was 1021 ng/mL, the Vd/F ([4]; 80 mg single oral dose, Mean) was 71.15 L and the t1/2 ([4]; 80 mg single oral dose, Mean) was 25.43 h. It also gave a tmax ([4]; 80 mg single oral dose, Mean) of 9 h, a CL/F ([4]; 160 mg single oral dose, GM) of 2.65 L/h and a Cmax ([4]; 160 mg single oral dose, GM) of 1815.3 ng/mL. For the same compound, the Vd/F ([4]; 160 mg single oral dose, GM) was 68.6 L, the t1/2 ([4]; 160 mg single oral dose, GM) was 17.92 h and the CL/F ([4]; 160 mg single oral dose, Mean) was 2.83 L/h. For the same compound, the Cmax ([4]; 160 mg single oral dose, Mean) was 1825.3 ng/mL, the Vd/F ([4]; 160 mg single oral dose, Mean) was 70.79 L and the t1/2 ([4]; 160 mg single oral dose, Mean) was 18.28 h. For the same compound, the tmax ([4]; 160 mg single oral dose, Mean) was 5 h, the CL/F ([4]; 220 mg single oral dose, GM) was 2.42 L/h and the Cmax ([4]; 220 mg single oral dose, GM) was 2285.4 ng/mL. It also gave a Vd/F ([4]; 220 mg single oral dose, GM) of 80.62 L, a t1/2 ([4]; 220 mg single oral dose, GM) of 23.10 h and a Cmax ([4]; 220 mg single oral dose, Mean) of 2512.3 ng/mL. It also gave a Vd/F ([4]; 220 mg single oral dose, Mean) of 81.32 L, a t1/2 ([4]; 220 mg single oral dose, Mean) of 24.17 h and a tmax ([4]; 220 mg single oral dose, Mean) of 5.50 h. For the same compound, the CL/F ([4]; 300 mg single oral dose, GM) was 3.02 L/h and the Cmax ([4]; 300 mg single oral dose, GM) was 2959.3 ng/mL.
